Test results taken from ChEMBL document CHEMBL6092215, “A Prostate-Specific Membrane Antigen-Targeting Small Molecule-Drug Conjugate Strategy to Overcome the Hematological Toxicity of Olaparib” (J Med Chem, 2024).
Calls of active or inactive are those of the source. No cut-off for these calls is given here.

Legend:
LNCaP = test: Antiproliferative activity against human LNCaP cells with high PSMA expression assessed as effect on cell viability incubated for 72 hrs by MTT assay; format: functional, cell-based
CWR22R [1] = test: Antiproliferative activity against human 22Rv1 cells with high PSMA expression assessed as effect on cell viability incubated for 72 hrs by MTT assay; format: functional, cell-based; details: 22Rv1, 72 h
PC-3 = test: Antiproliferative activity against PSMA negative human PC-3 cells assessed as effect on cell viability incubated for 72 hrs by MTT assay; format: functional
[2] = Antiproliferative activity against PSMA negative human RWPE-1 cells assessed as effect on cell viability incubated for 72 hrs by MTT assay; format: toxicity, cell-based; details: RWPE-1 cells (PSMA negative)
CWR22R [3] = test: Induction of DNA damage in human 22Rv1 cells assessed as increase in number of gamma-H2AX foci at 100 uM incubated for 12 hrs by DAPI staining based immunofluorescence analysis; format: functional, cell-based
CWR22R [4] = test: Antiproliferative activity against human 22Rv1 cells assessed as reduction in cell viability at 125 uM in presence of DUPA; format: functional, cell-based
[5] = Drug uptake in PSMA positive human 22Rv1 cells at 10 uM measured after 1 to 6 hrs by LC-MS/MS analysis; format: ADME, cell-based; details: cwr22r, time 1-6 hrs
[6] = Drug uptake in PSMA negative human PC-3 cells at 10 uM measured after 1 to 6 hrs by LC-MS/MS analysis; format: ADME, cell-based; details: pc-3, 10 µM, time 1-6 hrs
[7] = Subacute toxicity in male ICR mouse assessed as decrease in body weight at 100 mg/kg, po administered via gavage for 30 days relative to control; format: organism-based; set-up: scale not given: the % may be the effect or the level left; details: in vivo, 720 h, time 30 day
[8] = Subacute toxicity in male ICR mouse assessed as decrease in red blood cells at 100 mg/kg, po administered via gavage for 30 days by blood routine test relative to control; format: organism-based; set-up: scale not given: the % may be the effect or the level left; details: in vivo, 720 h, time 30 day
[9] = Subacute toxicity in male ICR mouse assessed as decrease in hemoglobin level at 100 mg/kg, po administered via gavage for 30 days by blood routine test relative to control; format: organism-based; set-up: scale not given: the % may be the effect or the level left; details: in vivo, 720 h, time 30 day
[10] = Subacute toxicity in male ICR mouse assessed as decrease in hematocrit level at 100 mg/kg, po administered via gavage for 30 days by blood routine test relative to control; format: organism-based; set-up: scale not given: the % may be the effect or the level left; details: in vivo, 720 h, time 30 day
[11] = Subacute toxicity in male ICR mouse assessed as decrease in WBC level at 100 mg/kg, po administered via gavage for 30 days by blood routine test relative to control; format: organism-based; set-up: scale not given: the % may be the effect or the level left; details: in vivo, 720 h, time 30 day
[12] = Subacute toxicity in male ICR mouse assessed as decrease in neutrophil level at 100 mg/kg, po administered via gavage for 30 days by blood routine test relative to control; format: organism-based; set-up: scale not given: the % may be the effect or the level left; details: in vivo, 720 h, time 30 day
[13] = Subacute toxicity in male ICR mouse assessed as decrease in lymphocytes level at 100 mg/kg, po administered via gavage for 30 days by blood routine test relative to control; format: organism-based; set-up: scale not given: the % may be the effect or the level left; details: in vivo, 720 h, time 30 day
CWR22R [14] = test: Antitumor activity against human 22Rv1 cells xenografted in male BALB/c nude mouse at 100 mg/kg administered via gavage; format: functional, organism-based
[15] = Toxicity in male BALB/c nude mouse xenografted with human 22Rv1 cells assessed as decrease in body weight at 100 mg/kg administered via gavage; format: organism-based; details: in vivo, po
CWR22R [16] = test: Antitumor activity against human 22Rv1 cells xenografted in male BALB/c nude mouse assessed as tumor growth inhibition at 100 mg/kg administered via gavage relative to control; format: functional; details: 22Rv1, po, read-out: TGI
[17] = Toxicity in male BALB/c nude mouse xenografted with human 22Rv1 cells assessed as decrease in lymphocytes at 100 mg/kg administered via gavage by routine blood test; format: organism-based; details: in vivo, po
[18] = Toxicity in male BALB/c nude mouse xenografted with human 22Rv1 cells assessed as decrease in granulocytes at 100 mg/kg administered via gavage by routine blood test; format: organism-based; details: in vivo, po
[19] = Toxicity in male BALB/c nude mouse xenografted with human 22Rv1 cells assessed as decrease in red blood cells at 100 mg/kg administered via gavage by routine blood test; format: organism-based; details: in vivo, po
[20] = Toxicity in male BALB/c nude mouse xenografted with human 22Rv1 cells assessed as decrease in hemoglobin at 100 mg/kg administered via gavage by routine blood test; format: organism-based; details: in vivo, po

## O=C(c1cc(Cc2n[nH]c(=O)c3ccccc23)ccc1F)N1CCN(C(=O)C2CC2)CC1 [OLAPARIB]
LNCaP
  IC50: 56.5 µM
CWR22R [1]
  IC50: 61.6 µM
PC-3
  CC50: 91.5 µM
[2]
  CC50 at 72 h: 85.5 µM
CWR22R [3]
  Activity: Active
CWR22R [4]
  Activity: Active; Drug Mode Of Action Appears To Be Independent Of Binding To Psma Receptor
[5]
  Drug uptake: Active
[6]
  Drug uptake: Active
[7]
  Activity: 8%
[8]
  Activity: 15.73%
[9]
  Activity: 11.69%
[10]
  Activity: 12.82%
[11]
  Activity: 28.12%
[12]
  Activity: 10.4%
[13]
  Activity: 32.71%
CWR22R [14]
  Activity: Active
[15]
  Activity: Non-toxic
CWR22R [16]
  inhibition in vivo at 100 mg/kg: 61%
[17]
  Activity: Toxic
[18]
  Activity: Toxic
[19]
  Activity: Toxic
[20]
  Activity: Toxic
